The term IC50 denotes the concentration that gives 50% inhibition. High values mean weaker potency in that assay, low ones greater potency in that assay.

Where only a bound is given, the exact number is not on record here.

For this experiment, the target named is T1, Human thrombin (Homo sapiens, UniProt P00734).
T1 construct: purchased Haematologic Technologies Inc
Put plainly: Inhibition of the protease activity of thrombin (chromogenic substrate S-2238). The format is biochemical.

[1] abbreviates: inhibition of the protease activity of thrombin.
The mark [2] stands for this setting: Table C, 3 nM thrombin, 125 μM S-2238, 10 min pre-incubation, RT.

Turning to `CC(C)OC(=O)n1nc(-c2cccnc2)nc1NCc1ccc(F)cc1` [Cmpd 299, propan-2-yl 5-[(4-fluorophenyl)methyl]amino-3-(pyridin-3-yl)-1H-1,2,4-triazole-1-carboxylate], the IC50 under setting [1] was over 1000 nM.

`CC(C)(C)OC(=O)n1nc(-c2cccnc2)nc1NCc1ccc(F)cc1` [Cmpd 300, tert-butyl 5-[(4-fluorophenyl)methyl]amino-3-(pyridin-3-yl)-1H-1,2,4-triazole-1-carboxylate] returned an IC50 under setting [1] of over 1000 nM.

The compound `CC(C)(C)OC(=O)Nc1ccccc1C(=O)n1nc(-c2ccccn2)nc1NCc1ccccc1` [Cmpd 301, tert-butyl N-(2-[5-(benzylamino)-3-(pyridin-2-yl)-1H-1,2,4-triazol-1-yl]carbonylphenyl)carbamate] came in with a concentration for half-maximal inhibition (IC50) under setting [1] of over 1000 nM.

In the case of `CC(=O)c1cn(-c2ccccc2)nc1N(Cc1ccc(F)cc1)C(=O)OC(C)(C)C` [Cmpd 302, tert-butyl N-(4-acetyl-1-phenyl-1H-pyrazol-3-yl)-N-[(4-fluorophenyl)methyl]carbamate], the half-maximal inhibitory concentration (IC50) under setting [1] is over 1000 nM.

`COc1ccccc1C(=O)c1cn(-c2ccccc2)nc1N(Cc1ccc(F)cc1)C(=O)OC(C)(C)C` [Cmpd 303, tert-butyl N-[(4-fluorophenyl)methyl]-N-4-[(2-methoxyphenyl)carbonyl]-1-phenyl-1H-pyrazol-3-ylcarbamate] yielded an IC50 under setting [1] of over 1000 nM.

Consider `COc1ccccc1C(O)c1cc(-c2ccccn2)nn1CCc1ccc(F)cc1` (stereo not drawn) [Cmpd 304, 1-[2-(4-fluorophenyl)ethyl]-3-(pyridin-2-yl)-1H-pyrazol-5-yl(2-methoxyphenyl)methanol], for which the 50% inhibitory concentration (IC50) under setting [1] was over 1000 nM.

In turn, `COc1ccccc1CNc1nc(-c2cccnc2)nn1C(=O)C(C)C` [Cmpd 305, 1-(5-[(2-methoxyphenyl)methyl]amino-3-(pyridin-3-yl)-1H-1,2,4-triazol-1-yl)-2-methylpropan-1-one] displayed an IC50 under setting [2] of over 1000 nM.

Take `CC(C)C(=O)n1nc(-c2cccnc2)nc1NCc1ccc(Cl)cc1` [Cmpd 306, 1-(5-[(4-chlorophenyl)methyl]amino-3-(pyridin-3-yl)-1H-1,2,4-triazol-1-yl)-2-methylpropan-1-one]: the IC50 under setting [2] was under 100 nM.

Regarding `CC(=O)n1nc(-c2cccnc2)nc1NCc1ccc(Cl)cc1` [Cmpd 307, 1-(5-[(4-chlorophenyl)methyl]amino-3-(pyridin-3-yl)-1H-1,2,4-triazol-1-yl)ethan-1-one], the IC50 under setting [2] is under 100 nM.

For `CCC(=O)n1nc(-c2cccnc2)nc1NCc1ccc(Cl)cc1` [Cmpd 308, 1-(5-[(4-chlorophenyl)methyl]amino-3-(pyridin-3-yl)-1H-1,2,4-triazol-1-yl)propan-1-one], the IC50 under setting [2] was under 100 nM.

Take `CC(C)(C)C(=O)n1nc(-c2ccco2)nc1NCc1ccc(F)cc1` [Cmpd 309, 1-(5-[(4-fluorophenyl)methyl]amino-3-(furan-2-yl)-1H-1,2,4-triazol-1-yl)-2,2-dimethylpropan-1-one]: the IC50 under setting [2] is under 100 nM.

`CC(C)C(=O)n1nc(-c2ccco2)nc1NCc1ccc(F)cc1` [Cmpd 310, 1-(5-[(4-fluorophenyl)methyl]amino-3-(furan-2-yl)-1H-1,2,4-triazol-1-yl)-2-methylpropan-1-one]: the IC50 under setting [2] was under 100 nM.

As for `COCC(=O)n1nc(-c2cccnc2)nc1NCc1ccc(F)cc1` [Cmpd 311, 1-(5-[(4-fluorophenyl)methyl]amino-3-(pyridin-3-yl)-1H-1,2,4-triazol-1-yl)-2-methoxyethan-1-one], the IC50 under setting [2] is over 1000 nM.

Regarding `CC(C)C(=O)n1nc(-c2cccnc2)nc1NCc1ccc(F)cc1` [Cmpd 312, 1-(5-[(4-fluorophenyl)methyl]amino-3-(pyridin-3-yl)-1H-1,2,4-triazol-1-yl)-2-methylpropan-1-one], under setting [2], the IC50 was under 100 nM.

Consider `O=C(Cc1ccccc1)n1nc(-c2cccnc2)nc1NCc1ccc(F)cc1` [Cmpd 313, 1-(5-[(4-fluorophenyl)methyl]amino-3-(pyridin-3-yl)-1H-1,2,4-triazol-1-yl)-2-phenylethan-1-one], for which the IC50 under setting [2] was under 100 nM.

(Values after US20170326125A1, “MULTISUBSTITUTED AROMATIC COMPOUNDS AS INHIBITORS OF THROMBIN” (VERSEON CORPORATION, priority 2016, published 2017).)
